target: T1, CCR1 (Homo sapiens, UniProt P32246); test: CCR1 inhibition (THP-1 FLIPR assay / THP-1 whole cell radioligand binding assay; the patent does not say which gave the values); assay type: cell-based; details: threshold list, less than 100 nm; compounds of Table 1; read-out: inhibitory activity
T1 construct: a monocytic derived cell line that endogenously expresses CCR1; host or cells: THP-1 cells
T1 sequence (P32246 1-355): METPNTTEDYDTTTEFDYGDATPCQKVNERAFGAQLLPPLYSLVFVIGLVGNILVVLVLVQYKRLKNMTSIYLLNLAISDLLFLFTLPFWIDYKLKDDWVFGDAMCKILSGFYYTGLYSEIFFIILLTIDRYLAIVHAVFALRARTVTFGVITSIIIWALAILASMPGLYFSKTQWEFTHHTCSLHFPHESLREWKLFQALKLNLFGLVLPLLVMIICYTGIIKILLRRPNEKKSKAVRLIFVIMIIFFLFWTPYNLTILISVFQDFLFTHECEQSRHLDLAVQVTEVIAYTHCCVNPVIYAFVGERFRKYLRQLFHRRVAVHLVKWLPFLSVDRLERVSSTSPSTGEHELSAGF
Method: The primary screening assay is a FLIPR® (Fluorometric Imaging Plate Reader, available from Molecular Devices Corporation, Sunnyvale, Calif.) assay using THP-1 cells (ATCC, Catalog No. TIB 202), a monocytic derived cell line that endogenously expresses CCR1.
The cells were resuspended at 1×10^6 cells/ml in dye loading media (growth media (RPMI+10% FBS (Fetal Bovine serum)+5.5×10^−5M 2-mercaptoethanol)+10 mM HEPES (N-2-hydroxyethylpiperazine-N′-2-ethane-sulfonic acid)+2.5 mM probenecid+fluo-3 (1:250)). The cells were incubated for 1 hour at 37° C. and then washed in FLIPR wash buffer (100 mL 10× HBSS (Hanks Buffered Saline Solution) (w/Ca++/Mg++)+20 mL 1M HEPES+1 g BSA+10 mL 250 mM probenecid+water (to make 1 L)) and plated at 50,000 cells/well in black/clear 384 well plates. The plates were transferred to FLIPR where the ability of different concentrations of compounds to inhibit RANTES induced calcium flux was assessed. Inhibition of the CCR1 response was reflected by a decrease of the fluorescence signal relative to the positive controls (RANTES alone).
THP-1 Whole Cell Radioligand Binding Assay
The cells were washed with PBS (phosphate buffered saline) and resuspended in binding buffer (10 mM HEPES pH 7.2, 1× HBSS (w/Ca^2+, Mg^2+) 0.5% BSA, 0.02% Na-azide) at 4×10^6 cells/ml (for 200, 000 cells/well). Cells were incubated with 0.1 to 0.2 nM [^125I]-labeled MIP-1α with or without unlabeled competitor (MIP-1α) or various concentrations of compounds for 60 minutes at room temperature. The assay was terminated by vacuum filtration through glass fiber filters (GF/B, Packard) which were presoaked in 0.3% polyethyleneimine. The filters were washed with wash buffer (10 mM HEPES, pH 7.2, 1 mM CaCl2, 5 mM MgCl2 0.5M NaCl), dried and the amount of bound radioactivity was determined by scintillation counting.

Compound	IC50 [nM]
O=C(c1ccc(Cl)cc1)N1CCN([C@H]2CN(c3nc(C(F)(F)F)nc4cc(Cl)ccc34)C[C@@H]2O)CC1 (stereo in doubt) [Example 201, 4-[4-(4-chlorobenzoyl)piperazin-1-yl]-1-[7-chloro-2-(trifluoromethyl)quinazolin-4-yl]pyrrolidin-3-ol]	< 100
O=C(c1ccc(Cl)cc1)N1CCN([C@@H]2CN(c3nc(C(F)(F)F)nc4cc(C(F)(F)F)ccc34)C[C@H]2O)CC1 (stereo in doubt) [Example 111, 1-[2,7-bis(trifluoromethyl)quinazolin-4-yl]-4-[4-(4-chlorobenzoyl)piperazin-1-yl]pyrrolidin-3-ol]	< 100
O[C@@H]1CN(c2ccnc3cc(Cl)ccc23)C[C@H]1N1CCN(Cc2ccc(Cl)cc2)CC1 [Example 61, (3R,4R)-4-[4-(4-chlorobenzyl)piperazin-1-yl]-1-(7-chloroquinolin-4-yl)pyrrolidin-3-ol]	< 100
O[C@@H]1CN(c2nc(C(F)(F)F)cc(C(F)(F)F)n2)C[C@H]1N1CCN(Cc2ccc(Cl)cc2)CC1 [Example 110, 1-[4,6-bis(trifluoromethyl)pyrimidin-2-yl]-4-[4-(4-chlorobenzyl)piperazin-1-yl]pyrrolidin3-ol]	< 100
CC(C)(O)c1ccc2nc(C(F)(F)F)nc(N3C[C@@H](O)[C@H](N4CCN(C(=O)c5ccc(Cl)cc5)CC4)C3)c2c1 (stereo in doubt) [Example 199, 4-[4-(4-chlorobenzoyl)piperazin-1-yl]-1-[6-(1-hydroxy-1-methylethyl)-2-(trifluoromethyl)quinazolin-4-yl]pyrrolidin-3-ol]	< 100
Nc1ccc2nc(C(F)(F)F)nc(N3C[C@H](O)[C@@H](N4CCN(C(=O)c5ccc(Cl)cc5)CC4)C3)c2c1 (stereo in doubt) [Example 186, 1-[6-amino-2-(trifluoromethyl)quinazolin-4-yl]-4-[4-(4-chlorobenzoyl)piperazin-1-yl]pyrrolidin-3-ol]	< 100
Cc1cc(C(F)(F)F)nc(N2C[C@@H](O)[C@H](N3CCN(Cc4ccc(Cl)cc4)CC3)C2)n1 (stereo in doubt) [Example 108, 4-[4-(4-chlorobenzyl)piperazin-1-yl]-1-[4-methyl-6-(trifluoromethyl)pyrimidin-2-yl]pyrrolidin-3-ol]	< 100
Cc1cc(C(F)(F)F)nc(N2C[C@H](O)[C@@H](N3CCN(C(=O)c4ccc(Cl)cc4)CC3)C2)n1 [Example 150, (3S,4S)-4-[4-(4-chlorobenzoyl)piperazin-1-yl]-1-[4-methyl-6-(trifluoromethyl)pyrimidin-2-yl]pyrrolidin-3-ol]	< 100
O[C@H]1CN(c2ncnc3cc(Cl)ccc23)C[C@@H]1N1CCC(Oc2ccc(Cl)cc2)CC1 (stereo in doubt) [Example 80, 4-[4-(4-chlorophenoxy)piperidin-1-yl]-1-(7-chloroquinazolin-4-yl)pyrrolidin-3-ol]	< 100
COc1ccc2nc(C(F)(F)F)nc(N3C[C@H](O)[C@@H](N4CCN(C(=O)c5ccc(Cl)cc5)CC4)C3)c2c1 (stereo in doubt) [Example 165, 4-[4-(4-chlorobenzoyl)piperazin-1-yl]-1-[6-methoxy-2-(trifluoromethyl)quinazolin-4-yl]pyrrolidin-3-ol]	< 100
COc1cc2c(N3C[C@H](O)[C@@H](N4CCN(C(=O)c5ccc(Cl)cc5)CC4)C3)nc(C(F)(F)F)nc2cn1 (racemic) [Example 183, 4-[4-(4-chlorobenzoyl)piperazin-1-yl]-1-[6-methoxy-2-(trifluoromethyl)pyrido[3,4-d]pyrimidin-4-yl]pyrrolidin-3-ol]	< 100
O[C@@H]1CN(c2ncnc3cc(Cl)ccc23)C[C@H]1N1CCN(Cc2ccc(F)cc2)CC1 (stereo in doubt) [Example 115, 1-(7-chloroquinazolin-4-yl)-4-[4-(4-fluorobenzyl)piperazin-1-yl]pyrrolidin-3-ol]	< 100

Next, values leading:

IC50 [nM]	Compound
< 100	O=C(c1ccc(Cl)cc1)N1CCN([C@@H]2CN(c3ncnc4cc(C(F)(F)F)ccc34)C[C@H]2O)CC1 (stereo in doubt) [Example 93, 4-[4-(4-chlorobenzoyl)piperazin-1-yl]-1-[7-(trifluoromethyl)quinazolin-4-yl]pyrrolidin-3-ol]
< 100	O=C(c1ccc(Cl)cc1)N1CCN([C@H]2CN(c3ncnc4cc(Cl)ccc34)C[C@@H]2O)CC1 [Example 105, (3S,4S)-4-[4-(4-chlorobenzoyl)piperazin-1-yl]-1-(7-chloroquinazolin-4-yl)pyrrolidin-3-ol]
< 100	O=C(c1ccc(Cl)cc1)N1CCN([C@@H]2CN(c3nccc(C(F)(F)F)n3)C[C@H]2O)CC1 (stereo in doubt) [Example 3, 4-[4-(4-chlorobenzoyl)piperazin-1-yl]-1-[4-(trifluoromethyl)pyrimidin-2-yl]pyrrolidin-3-ol]
< 100	O=C(c1ccc(Cl)cc1)N1CCN([C@@H]2CN(c3nc(C(F)(F)F)nc4ccccc34)C[C@H]2O)CC1 (stereo in doubt) [Example 94, 4-[4-(4-chlorobenzoyl)piperazin-1-yl]-1-[2-(trifluoromethyl)quinazolin-4-yl]pyrrolidin-3-ol]
< 100	O=C(c1ccc(Cl)cc1)N1CCN([C@H]2CN(c3ncnc4cc(C(F)(F)F)ccc34)C[C@@H]2O)CC1 (stereo in doubt) [Example 132, 4-[4-(4-chlorobenzoyl)piperazin-1-yl]-1-[7-(trifluoromethyl)quinazolin-4-yl]pyrrolidin-3-ol]
< 100	O=C(c1ccc(Cl)cc1)N1CCN([C@@H]2CN(c3nccc4ccccc34)C[C@H]2O)CC1 [Example 21, 4-[4-(4-chlorobenzoyl)piperazin-1-yl]-1-isoquinolin-1-ylpyrrolidin-3-ol]
< 100	O=C(c1ccc(Cl)cc1)N1CCN([C@H]2CN(c3cc(C(F)(F)F)c4ccccc4n3)C[C@@H]2O)CC1 (stereo in doubt) [Example 127, 4-[4-(4-chlorobenzoyl)piperazin-1-yl]-1-[4-(trifluoromethyl)quinolin-2-yl]pyrrolidin-3-ol]
< 100	O=C(c1ccc(Cl)cc1)N1CCN([C@@H]2CN(c3ccnc4cc(Cl)ccc34)C[C@H]2O)CC1 (stereo in doubt) [Example 1, 4-[4-(4-chlorobenzoyl)piperazin-1-yl]-1-(7-chloroquinolin-4-yl)pyrrolidin-3-ol]
